Four molecules from US20210205340A1, “COMPOSITIONS COMPRISING SIALYLATED OLIGOSACCHARIDES FOR USE IN INFANTS OR YOUNG CHILDREN TO PREVENT LATER IN LIFE OBESITY OR RELATED COMORBIDITIES AND PROMOTE A HEALTHY GROWTH” (NESTEC S.A., priority 2016, published 2021) can be followed below.

Entries after “also recorded” stand apart in the source; their conditions may differ.

For the experiment, the system named is NCI-H716 cells. Kind of experiment: Calcium assay: activation of NCI-H716 cells by sialylated oligosaccharides (change in fluorescence ratio from intracellular calcium increase). Type of experiment: cell-based, human. The note with it: for significance of the increase in fluorescence ratio / concentration dependence of calcium response / activation of NCI-H716 cells / fluorescence ratio (intracellular calcium response): NCI-H716 cells; for significance of the increase in fluorescence ratio: 5 mg/mL, 10 mg/mL and 20 mg/mL, p<0.05 vs Negative control, two-sided t-test; for concentration dependence of calcium response / activation of NCI-H716 cells: 1-20 mg/mL, FIG. 1 / FIG. 3; for fluorescence ratio (intracellular calcium response): all the tested concentrations (1 mg/mL, 5 mg/mL, 10 mg/mL and 20 mg/mL), vs buffer negative control; for intracellular calcium release: in vitro system with endocrine intestinal cells, indicator of potential GLP-1 secretagogue capacity. The source says: NCI-H716 is a cell line derived from human L-cells, the enteroendocrine cells that secrete GLP-1, and it is often used as a model of GLP-1 secretion. Unstimulated NCI-H716 cells secrete a basal level of GLP-1 and activation of the cells leads to dose-dependent increase in GLP-1 secretion. Activation of the NCI-H716 cells and subsequent release of GLP-1 can be triggered by nutrients such as palmitic acid, oleic acid, and meat hydrolysate, Gastrin Releasing Peptide (GRP), the cholinergic molecule Carbachol, bitter compounds such as denatonium, ginsenosides and other molecules.
Activation of NCI-H716 cells by ionomycin, GRP, denatonium, or ginsenosides leads to increased intracellular calcium. Elevation of intracellular calcium is therefore a marker of cell activation and in NCI-H716 cells it could be considered as an indicator of GLP-1 release.
A calcium assay was used to determine if NCI-H716 cells respond to human milk oligosaccharides (sialylated oligosaccharides) or components/precursors thereof (lactose and sialic acid). In this assay, cultured NCI-H716 cells were loaded with a fluorescent calcium sensitive dye then stimulated with the HMOs. The response to the stimulus was measured by change in fluorescence ratio in consequence of intracellular calcium increase. The tested HMOs were 3′-sialyllactose (3SL) and 6′-sialyllactose (6SL). They were tested individually.
GRP (Gastrin Releasing Peptide): positive control
Tested HMOs concentrations: 1 mg/mL, 5 mg/mL, 10 mg/mL and 20 mg/mL
Tested lactose and sialic acid concentrations: 5.5 mg/mL and 4.72 mg/mL respectively (correspond to the amounts contained in 10 mg/mL of 3SL, in order to make a suitable comparison with 10 mg/mL of 3SL)
Background: Calcium assays in cells follow changes in intracellular calcium, usually with a dye or a luminescent sensor.

For `CC(=O)N[C@H]1[C@H]([C@H](O)[C@H](O)CO)OC(O)(C(=O)O)C[C@@H]1O` (some centres unmarked) [sialic acid, N-acetylneuraminic acid, reference compound], the “activation of NCI-H716 cells (calcium response)” value (sialic acid 4.72 mg/mL (amount contained in 10 mg/mL of 3SL), FIG. 2) is reported as “did not activate the cells”.
Consider `OC[C@H]1O[C@@H](O[C@H]2[C@H](O)[C@@H](O)C(O)O[C@@H]2CO)[C@H](O)[C@@H](O)[C@H]1O` (some centres unmarked) [Lactose, lactose, reference compound], for which, under “lactose 5.5 mg/mL (amount contained in 10 mg/mL of 3SL), FIG. 2”, the “activation of NCI-H716 cells (calcium response)” value is recorded as “did not activate the cells”.
As to `CC(=O)N[C@H]1[C@H]([C@H](O)[C@H](O)CO)O[C@@](O[C@H]2[C@@H](O)[C@@H](CO)O[C@@H](O[C@H]3[C@H](O)[C@@H](O)C(O)O[C@@H]3CO)[C@@H]2O)(C(=O)O)C[C@@H]1O` (stereo partly drawn) [3SL, (6R)-5-Acetamido-3,5-dideoxy-6-[(1R,2R)-1,2,3-trihydroxypropyl]-β-L-threo-hex-2-ulopyranonosyl-(2->3)β-D-galactopyranosyl-(1->4)-D-glucopyranose], the “significance of the increase in fluorescence ratio” value is on record as “significant”, the “concentration dependence of calcium response / activation of NCI-H716 cells” value is recorded as “clear concentration dependent calcium response; also recorded: dose dependent activation”, the “fluorescence ratio (intracellular calcium response)” value was “enhanced” and the intracellular calcium release entry is listed as “increased intracellular calcium release”. Besides, the “specificity of the calcium response” value (3SL 10 mg/mL compared with its components lactose and sialic acid, FIG. 2) was “specific”.
For the molecule `CC(=O)N[C@H]1[C@H]([C@H](O)[C@H](O)CO)O[C@@](OC[C@H]2O[C@@H](O[C@H]3[C@H](O)[C@@H](O)C(O)O[C@@H]3CO)[C@H](O)[C@@H](O)[C@H]2O)(C(=O)O)C[C@@H]1O` (stereo partly drawn) [6SL, (6R)-5-Acetamido-3,5-dideoxy-6-[(1R,2R)-1,2,3-trihydroxypropyl]-β-L-threo-hex-2-ulopyranonosyl-(2->6)β-D-galactopyranosyl-(1->4)-D-glucopyranose], the “significance of the increase in fluorescence ratio” value is “significant”, the “concentration dependence of calcium response / activation of NCI-H716 cells” value is on record as “clear concentration dependent calcium response; also recorded: dose dependent activation”, the “fluorescence ratio (intracellular calcium response)” value is listed as “enhanced” and the intracellular calcium release result is listed as “increased intracellular calcium release”.
